According to ChEMBL document CHEMBL1136023, “Antifungal Sordarins. Part 4: synthesis and structure--activity relationships of 3',4'-fused alkyl-tetrahydrofuran derivatives” (2002):
≈ marks a conversion by molar mass, not a printed value.

How the values were obtained:
Assay type in all cases: functional
[1] = tested on: Aspergillus flavus; assay: Minimal inhibitory effect against the Aspergillus flavus (C1150).
[2] = tested on: Nakaseomyces glabratus; assay: Minimal inhibitory effect against the Candida glabrata (2375E).
[3] = tested on: Cryptococcus neoformans; assay: Minimal inhibitory effect against the Cryptococcus neoformans (2867E).
[4] = tested on: Candida parapsilosis; assay: Minimal inhibitory effect against the Candida parapsilosis (2372E).; conditions: Lodderomyces parapsilosis
[5] = tested on: Kluyveromyces marxianus; assay: Minimal inhibitory effect against the Candida pseudotropicalis (2371E).
[6] = tested on: Candida albicans; assay: Minimal inhibitory effect against the Candida albicans (4711E).
[7] = tested on: Candida tropicalis; assay: Minimal inhibitory effect against the Candida tropicalis (2808E).
[8] = tested on: Candida albicans; assay: Minimal inhibitory effect against the Candida albicans (2005E).

SMILES	MIC [1] [µg/mL]	MIC [2] [µg/mL]	MIC [3] [µg/mL]	MIC [4] [µg/mL]	MIC [5] [µg/mL]	MIC [6] [µg/mL]	MIC [7] [µg/mL]	MIC [8] [µg/mL]
CC(C)C1=CC2CC3(C=O)[C@@H]4CC[C@@H](C)[C@H]4CC2(CO[C@@H]2O[C@H](C)[C@H]4OC[C@H](C)C4[C@@H]2O)C13C(=O)O (single isomer, unassigned)	> 125	31 (≈ 61.7 µM)	1 (≈ 1.99 µM)	125 (≈ 249 µM)	1 (≈ 1.99 µM)	1 (≈ 1.99 µM)	2 (≈ 3.98 µM)	0.5 (≈ 0.995 µM)
CC(C)C1=CC2CC3(C=O)[C@@H]4CC[C@@H](C)[C@H]4CC2(CO[C@H]2C[C@H]4[C@H](OCC4(C)C)[C@@H](C)O2)C13C(=O)O (stereo partly specified)	> 125	8 (≈ 16 µM)	4 (≈ 7.99 µM)	> 125	< 0.001	< 0.001	0.06 (≈ 0.12 µM)	< 0.001
CC(C)C1=CC2CC3(C=O)[C@@H]4CC[C@@H](C)[C@H]4CC2(CO[C@H]2C[C@H]4[C@H](OC[C@@H]4C)[C@@H](C)O2)C13C(=O)O (stereo partly specified)	62 (≈ 127 µM)	0.5 (≈ 1.03 µM)	0.25 (≈ 0.514 µM)	2 (≈ 4.11 µM)	0.004 (≈ 0.00822 µM)	< 0.001	0.008 (≈ 0.0164 µM)	< 0.001
CC(C)C1=CC2CC3(C=O)[C@@H]4CC[C@@H](C)[C@H]4CC2(CO[C@@H]2O[C@H](C)[C@H]4OC[C@@H](C)C4[C@@H]2O)C13C(=O)O (single isomer, unassigned)	> 125	62 (≈ 123 µM)	31 (≈ 61.7 µM)	125 (≈ 249 µM)	0.25 (≈ 0.497 µM)	0.25 (≈ 0.497 µM)	0.5 (≈ 0.995 µM)	0.008 (≈ 0.0159 µM)
CC(C)C1=CC2CC3(C=O)[C@@H]4CC[C@@H](C)[C@H]4CC2(CO[C@H]2C[C@@H]4OC(C)(C)O[C@@H]4[C@@H](C)O2)C13C(=O)O (stereo partly specified)	> 125	31 (≈ 61.7 µM)	0.12 (≈ 0.239 µM)	> 125	0.004 (≈ 0.00796 µM)	0.004 (≈ 0.00796 µM)	0.12 (≈ 0.239 µM)	< 0.001
CC[C@H]1CO[C@H]2C1[C@H](O)[C@H](OCC13C[C@@H]4[C@H](C)CC[C@H]4C4(C=O)CC1C=C(C(C)C)C34C(=O)O)O[C@@H]2C (single isomer, unassigned)	> 125	8 (≈ 15.5 µM)	< 0.25	125 (≈ 242 µM)	0.06 (≈ 0.116 µM)	0.12 (≈ 0.232 µM)	0.5 (≈ 0.968 µM)	0.03 (≈ 0.0581 µM)
CC(C)C1=CC2CC3(C=O)[C@@H]4CC[C@@H](C)[C@H]4CC2(CO[C@H]2C[C@@H]4OC[C@@H](C)[C@@H]4[C@@H](C)O2)C13C(=O)O (stereo partly specified)	> 125	8 (≈ 16.4 µM)	1 (≈ 2.05 µM)	> 125	< 0.001	< 0.001	0.008 (≈ 0.0164 µM)	< 0.001
CC[C@@H]1CO[C@H]2C1[C@H](O)[C@H](OCC13C[C@@H]4[C@H](C)CC[C@H]4C4(C=O)CC1C=C(C(C)C)C34C(=O)O)O[C@@H]2C (single isomer, unassigned)	> 125	16 (≈ 31 µM)	< 0.25	125 (≈ 242 µM)	0.06 (≈ 0.116 µM)	0.12 (≈ 0.232 µM)	0.25 (≈ 0.484 µM)	0.015 (≈ 0.029 µM)
CC[C@H]1CO[C@H]2[C@@H]1C[C@H](OCC13C[C@@H]4[C@H](C)CC[C@H]4C4(C=O)CC1C=C(C(C)C)C34C(=O)O)O[C@@H]2C (stereo partly specified)	62 (≈ 124 µM)	0.5 (≈ 0.999 µM)	< 0.25	4 (≈ 7.99 µM)	< 0.001	< 0.001	< 0.001	< 0.001
CC[C@@H]1CO[C@H]2[C@@H]1C[C@H](OCC13C[C@@H]4[C@H](C)CC[C@H]4C4(C=O)CC1C=C(C(C)C)C34C(=O)O)O[C@@H]2C (stereo partly specified)	> 125	4 (≈ 7.99 µM)	1 (≈ 2 µM)	> 125	< 0.001	< 0.001	< 0.001	< 0.001
CC(C)C1=CC2CC3(C=O)[C@@H]4CC[C@@H](C)[C@H]4CC2(CO[C@H]2C[C@@H]4OC[C@H](C)[C@@H]4[C@@H](C)O2)C13C(=O)O (stereo partly specified)	> 125	16 (≈ 32.9 µM)	0.5 (≈ 1.03 µM)	> 125	< 0.001	0.004 (≈ 0.00822 µM)	0.03 (≈ 0.0616 µM)	0.001 (≈ 0.00205 µM)
CC(C)C1=CC2CC3(C=O)[C@@H]4CC[C@@H](C)[C@H]4CC2(CO[C@H]2C[C@H]4[C@H](OC[C@@H]4C(C)C)[C@@H](C)O2)C13C(=O)O (stereo partly specified)	> 125	2 (≈ 3.89 µM)	0.25 (≈ 0.486 µM)	16 (≈ 31.1 µM)	< 0.001	< 0.001	0.004 (≈ 0.00777 µM)	< 0.001
CC(C)C1=CC2CC3(C=O)[C@@H]4CC[C@@H](C)[C@H]4CC2(CO[C@H]2C[C@H]4[C@H](OC[C@H]4C(C)C)[C@@H](C)O2)C13C(=O)O (stereo partly specified)	> 125	62 (≈ 120 µM)	4 (≈ 7.77 µM)	> 125	< 0.001	< 0.001	2 (≈ 3.89 µM)	< 0.001
OC(Cn1cncn1)(Cn1cncn1)c1ccc(F)cc1F [FLUCONAZOLE]	–	4 (≈ 13.1 µM)	–	0.5 (≈ 1.63 µM)	–	0.12 (≈ 0.392 µM)	2 (≈ 6.53 µM)	–
CC(C)C1=CC2CC3(C=O)[C@@H]4CC[C@@H](C)[C@H]4CC2(CO[C@H]2C[C@H]4[C@H](OC[C@H]4C)[C@@H](C)O2)C13C(=O)O (stereo partly specified)	> 125	4 (≈ 8.22 µM)	4 (≈ 8.22 µM)	> 125	0.001 (≈ 0.00205 µM)	< 0.001	0.004 (≈ 0.00822 µM)	0.001 (≈ 0.00205 µM)
